Test results from article PMC3082441 (Journal of medicinal chemistry, 2008).
Where two headings read alike, the source gives them in different places.

Tests used:
human sAC = conditions: read-out: reported IC50 against human sAC; cited from earlier work
CyaC [1] = molecular target: T1, CyaC (Limnospira platensis, UniProt O32393); conditions: cited from earlier work
[2] = tested on: endogenous tmACs expressed in HEK293T cells; type: biochemical, mammalian; conditions: 100 μM compound
CyaC [3] = molecular target: T1, CyaC
AC1 = AC1 (Homo sapiens, UniProt Q08828); conditions: 100 μM compound; forskolin-stimulated; transfected HEK293T lysate
AC5 = AC5 (Homo sapiens, UniProt O95622); conditions: 100 μM compound; forskolin-stimulated; transfected HEK293T lysate
AC9 = molecular target: T2, AC9 (Homo sapiens, UniProt O60503); conditions: 100 μM compound, transfected HEK293T lysate
T2 sequence (O60503 1-1353): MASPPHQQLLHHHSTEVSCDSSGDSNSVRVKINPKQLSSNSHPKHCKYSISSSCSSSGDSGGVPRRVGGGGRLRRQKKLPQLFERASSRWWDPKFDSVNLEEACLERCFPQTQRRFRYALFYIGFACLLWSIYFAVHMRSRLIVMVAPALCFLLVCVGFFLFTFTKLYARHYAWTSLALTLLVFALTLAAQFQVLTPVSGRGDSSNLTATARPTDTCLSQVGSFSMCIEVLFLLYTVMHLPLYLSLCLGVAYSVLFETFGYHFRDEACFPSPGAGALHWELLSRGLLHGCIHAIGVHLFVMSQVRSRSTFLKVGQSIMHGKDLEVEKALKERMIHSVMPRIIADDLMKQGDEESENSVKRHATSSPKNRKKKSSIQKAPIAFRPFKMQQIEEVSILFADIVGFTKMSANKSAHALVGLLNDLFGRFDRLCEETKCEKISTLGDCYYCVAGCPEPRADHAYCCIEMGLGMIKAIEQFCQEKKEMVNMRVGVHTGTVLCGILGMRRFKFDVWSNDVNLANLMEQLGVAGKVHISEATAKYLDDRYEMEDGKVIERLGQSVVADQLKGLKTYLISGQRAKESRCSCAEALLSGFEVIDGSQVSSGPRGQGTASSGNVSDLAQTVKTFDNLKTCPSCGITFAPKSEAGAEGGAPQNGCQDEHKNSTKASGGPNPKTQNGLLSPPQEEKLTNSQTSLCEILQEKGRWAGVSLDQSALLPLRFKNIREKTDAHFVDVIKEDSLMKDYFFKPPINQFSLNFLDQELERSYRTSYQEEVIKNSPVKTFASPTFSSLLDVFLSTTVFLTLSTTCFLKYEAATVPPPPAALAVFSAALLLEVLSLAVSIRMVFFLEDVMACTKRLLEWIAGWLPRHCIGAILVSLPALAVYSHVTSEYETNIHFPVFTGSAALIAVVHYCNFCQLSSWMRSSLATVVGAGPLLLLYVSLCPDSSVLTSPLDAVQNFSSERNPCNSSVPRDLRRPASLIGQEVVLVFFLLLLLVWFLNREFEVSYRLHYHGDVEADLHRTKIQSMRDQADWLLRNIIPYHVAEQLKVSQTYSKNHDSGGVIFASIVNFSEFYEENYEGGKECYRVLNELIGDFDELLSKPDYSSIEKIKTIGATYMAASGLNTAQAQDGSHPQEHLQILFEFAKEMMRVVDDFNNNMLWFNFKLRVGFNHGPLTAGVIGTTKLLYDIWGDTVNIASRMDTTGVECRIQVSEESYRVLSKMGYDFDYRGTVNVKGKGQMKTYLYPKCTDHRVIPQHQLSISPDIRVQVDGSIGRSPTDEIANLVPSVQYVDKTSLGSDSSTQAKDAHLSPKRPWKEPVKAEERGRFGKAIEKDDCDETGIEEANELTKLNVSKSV

mammalian sAC = molecular target: T3, mammalian sAC (Homo sapiens, UniProt Q96PN6); assay: Activity assay with purified, recombinant mammalian sAC; type: biochemical, human or rat; conditions: dose-response curve
T3 sequence (Q96PN6 1-469): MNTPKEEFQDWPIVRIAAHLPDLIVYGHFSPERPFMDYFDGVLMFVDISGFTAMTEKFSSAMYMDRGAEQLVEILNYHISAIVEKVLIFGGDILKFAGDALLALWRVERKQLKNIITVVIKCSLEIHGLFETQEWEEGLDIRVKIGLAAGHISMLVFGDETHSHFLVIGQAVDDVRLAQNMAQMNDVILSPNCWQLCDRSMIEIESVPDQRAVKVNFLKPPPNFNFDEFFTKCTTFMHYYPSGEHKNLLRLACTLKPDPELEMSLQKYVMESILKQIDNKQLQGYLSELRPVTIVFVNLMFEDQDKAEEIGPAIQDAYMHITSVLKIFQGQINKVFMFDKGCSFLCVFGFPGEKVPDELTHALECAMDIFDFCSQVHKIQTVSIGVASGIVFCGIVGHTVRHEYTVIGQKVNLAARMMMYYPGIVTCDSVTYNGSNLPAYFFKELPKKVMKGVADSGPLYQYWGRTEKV

AC2 = AC2 (Homo sapiens, UniProt Q08462)
CyaC [4] = molecular target: T1, CyaC; assay: biochemical; conditions: read-out: IC50 against CyaC in vitro (estimated)

T1 sequence (O32393 998-1202 limits assumed): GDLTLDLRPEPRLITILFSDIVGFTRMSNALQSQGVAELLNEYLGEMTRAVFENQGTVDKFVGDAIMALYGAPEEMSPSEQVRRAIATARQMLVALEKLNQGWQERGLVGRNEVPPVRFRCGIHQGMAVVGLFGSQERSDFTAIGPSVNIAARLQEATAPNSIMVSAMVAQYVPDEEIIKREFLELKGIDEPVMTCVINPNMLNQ
AC1, sequence (Q08828 whole entry): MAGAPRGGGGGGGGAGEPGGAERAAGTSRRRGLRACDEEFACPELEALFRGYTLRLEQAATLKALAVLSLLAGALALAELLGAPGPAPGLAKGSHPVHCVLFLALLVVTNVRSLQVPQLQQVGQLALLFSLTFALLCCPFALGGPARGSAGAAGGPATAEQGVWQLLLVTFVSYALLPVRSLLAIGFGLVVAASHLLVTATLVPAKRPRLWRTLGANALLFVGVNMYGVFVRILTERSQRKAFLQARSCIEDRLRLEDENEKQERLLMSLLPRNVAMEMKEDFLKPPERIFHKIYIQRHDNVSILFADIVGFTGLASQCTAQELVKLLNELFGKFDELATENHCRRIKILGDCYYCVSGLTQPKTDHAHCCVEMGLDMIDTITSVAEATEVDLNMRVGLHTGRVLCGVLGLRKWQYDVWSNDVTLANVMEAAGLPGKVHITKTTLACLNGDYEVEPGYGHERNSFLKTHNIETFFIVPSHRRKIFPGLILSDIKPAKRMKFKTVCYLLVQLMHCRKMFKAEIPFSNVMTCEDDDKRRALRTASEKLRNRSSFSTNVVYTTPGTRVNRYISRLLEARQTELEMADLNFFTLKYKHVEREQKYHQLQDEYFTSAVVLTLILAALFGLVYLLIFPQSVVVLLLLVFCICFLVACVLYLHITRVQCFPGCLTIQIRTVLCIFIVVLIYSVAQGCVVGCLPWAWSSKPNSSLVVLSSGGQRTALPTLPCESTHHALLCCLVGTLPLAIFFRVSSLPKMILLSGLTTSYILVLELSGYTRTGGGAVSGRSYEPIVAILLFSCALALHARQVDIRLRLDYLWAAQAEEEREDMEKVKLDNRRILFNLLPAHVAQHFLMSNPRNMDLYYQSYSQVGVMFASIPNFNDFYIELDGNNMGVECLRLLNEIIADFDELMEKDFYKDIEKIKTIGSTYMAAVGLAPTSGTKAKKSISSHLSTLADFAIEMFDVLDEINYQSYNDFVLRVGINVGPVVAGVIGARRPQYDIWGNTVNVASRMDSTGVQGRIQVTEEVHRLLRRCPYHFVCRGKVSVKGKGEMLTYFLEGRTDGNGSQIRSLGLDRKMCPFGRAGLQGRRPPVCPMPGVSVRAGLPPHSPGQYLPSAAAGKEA
AC5, sequence (O95622 whole entry, species assumed): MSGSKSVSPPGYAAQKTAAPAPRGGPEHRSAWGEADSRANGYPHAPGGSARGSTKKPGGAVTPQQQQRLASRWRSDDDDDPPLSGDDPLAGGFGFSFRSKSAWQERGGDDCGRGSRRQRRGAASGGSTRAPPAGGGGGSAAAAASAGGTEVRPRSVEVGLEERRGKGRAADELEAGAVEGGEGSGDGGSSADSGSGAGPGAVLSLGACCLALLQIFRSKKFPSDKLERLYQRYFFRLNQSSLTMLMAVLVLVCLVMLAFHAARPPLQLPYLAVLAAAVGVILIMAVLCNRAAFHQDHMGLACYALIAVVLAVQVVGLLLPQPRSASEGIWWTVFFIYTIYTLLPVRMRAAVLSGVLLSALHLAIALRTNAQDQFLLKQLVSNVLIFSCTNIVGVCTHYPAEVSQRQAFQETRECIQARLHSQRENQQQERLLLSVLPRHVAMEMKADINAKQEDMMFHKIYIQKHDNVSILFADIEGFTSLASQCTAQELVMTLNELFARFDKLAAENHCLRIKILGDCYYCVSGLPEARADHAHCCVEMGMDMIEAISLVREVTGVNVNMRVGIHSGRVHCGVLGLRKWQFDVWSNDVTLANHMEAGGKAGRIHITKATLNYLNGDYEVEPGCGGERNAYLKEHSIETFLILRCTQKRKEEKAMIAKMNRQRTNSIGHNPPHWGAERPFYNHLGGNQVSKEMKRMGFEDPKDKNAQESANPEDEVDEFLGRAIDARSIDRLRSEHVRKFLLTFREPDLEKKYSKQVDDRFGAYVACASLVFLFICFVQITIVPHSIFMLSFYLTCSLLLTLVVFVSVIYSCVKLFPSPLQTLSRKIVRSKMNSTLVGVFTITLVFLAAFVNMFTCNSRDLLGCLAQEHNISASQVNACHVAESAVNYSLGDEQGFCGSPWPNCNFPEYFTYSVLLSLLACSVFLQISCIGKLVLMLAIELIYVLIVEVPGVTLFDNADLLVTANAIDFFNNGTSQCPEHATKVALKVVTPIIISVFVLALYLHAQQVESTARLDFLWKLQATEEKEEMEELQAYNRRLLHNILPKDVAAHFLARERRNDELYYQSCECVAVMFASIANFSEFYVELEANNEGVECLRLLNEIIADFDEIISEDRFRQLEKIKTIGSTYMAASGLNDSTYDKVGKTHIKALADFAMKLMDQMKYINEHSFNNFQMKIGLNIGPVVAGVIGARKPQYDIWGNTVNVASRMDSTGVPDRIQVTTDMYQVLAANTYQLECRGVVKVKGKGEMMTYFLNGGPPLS
AC2, sequence (Q08462 whole entry): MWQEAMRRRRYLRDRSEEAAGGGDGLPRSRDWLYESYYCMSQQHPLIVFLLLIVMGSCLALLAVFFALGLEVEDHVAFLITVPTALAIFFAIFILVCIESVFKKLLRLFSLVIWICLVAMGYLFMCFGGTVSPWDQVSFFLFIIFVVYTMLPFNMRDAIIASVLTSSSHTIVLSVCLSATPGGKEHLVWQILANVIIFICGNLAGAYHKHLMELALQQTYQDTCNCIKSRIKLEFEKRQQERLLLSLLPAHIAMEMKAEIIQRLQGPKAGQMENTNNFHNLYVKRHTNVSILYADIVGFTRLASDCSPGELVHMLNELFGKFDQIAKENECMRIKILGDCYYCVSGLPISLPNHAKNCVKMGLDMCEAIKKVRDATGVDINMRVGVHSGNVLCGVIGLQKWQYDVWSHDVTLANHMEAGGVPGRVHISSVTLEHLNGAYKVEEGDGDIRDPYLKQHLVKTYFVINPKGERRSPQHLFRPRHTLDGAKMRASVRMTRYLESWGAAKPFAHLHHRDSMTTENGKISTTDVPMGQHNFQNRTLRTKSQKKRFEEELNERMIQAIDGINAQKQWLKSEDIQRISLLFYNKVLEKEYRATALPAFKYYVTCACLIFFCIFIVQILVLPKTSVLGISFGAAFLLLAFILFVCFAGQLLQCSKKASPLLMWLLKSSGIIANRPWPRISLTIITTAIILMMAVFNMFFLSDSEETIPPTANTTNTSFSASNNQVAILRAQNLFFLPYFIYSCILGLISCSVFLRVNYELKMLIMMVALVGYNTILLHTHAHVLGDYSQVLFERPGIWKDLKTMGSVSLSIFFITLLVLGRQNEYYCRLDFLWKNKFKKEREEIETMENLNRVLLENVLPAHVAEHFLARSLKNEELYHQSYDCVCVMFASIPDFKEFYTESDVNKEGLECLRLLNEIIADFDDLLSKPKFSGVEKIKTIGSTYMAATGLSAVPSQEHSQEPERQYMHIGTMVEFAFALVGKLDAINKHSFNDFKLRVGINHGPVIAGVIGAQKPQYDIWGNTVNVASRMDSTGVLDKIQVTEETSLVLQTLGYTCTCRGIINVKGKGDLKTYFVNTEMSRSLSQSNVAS

## C[C@H]1O[C@@H](n2cnc3c(N)ncnc32)C[C@@H]1OP(=O)(O)OP(=O)(O)OP(=O)(O)O [2′,5′-didesoxy-3′-ATP]
Human sAC
  IC50: 0.7 µM

## C[C@]12CC[C@@H]3c4cc(O)c(O)cc4CC[C@H]3[C@@H]1CC[C@@H]2O [Compound 1, 2-hydroxy-17β-estradiol]
CyaC [1]
  Mode of inhibition with respect to ATP (reported): noncompetitive inhibitor

## C[C@]12CC[C@H]3[C@@H](CCC4=CC(=O)CC[C@@]43C)[C@@H]1CC[C@@H]2C(=O)COS(=O)(=O)c1ccc(Br)cc1 [Compound 2, 3,20-dioxopregn-4-en-21-yl 4-bromobenzenesulfonate]
[2]
  Inhibition of forskolin-stimulated AC activity in HEK293T whole cell extracts: no significant inhibition
CyaC [3]; 1 μM inhibitor
  Vmax of CyaC: 0.38 nmol/mg/min
CyaC [3]; […] inhibitor
  Vmax of CyaC: 0.29 nmol/mg/min
CyaC [3]; […] μM inhibitor
  Vmax of CyaC: 0.08 nmol/mg/min
CyaC [3]; various substrate concentrations at fixed inhibitor amounts
  Mode of inhibition with respect to ATP: noncompetitive inhibitor
AC1
  Inhibition of AC1 activity: did not significantly inhibit
AC5
  Inhibition of AC5 activity: did not significantly inhibit
AC9
  Effect on basal AC9 activity: did not appreciably affect

## O=C(O)c1cc2c(cc1S(=O)(=O)O)C1C(C3C2C2(Cl)C(Cl)=C(Cl)C3(Cl)C2(Cl)Cl)C2(Cl)C(Cl)=C(Cl)C1(Cl)C2(Cl)Cl (stereo not drawn) [Compound 3, 1,2,3,4,5,6,7,8,13,13,14,14-dodecachloro-1,4,4a,4b,5,8,8a, 12b-octahydro-11-sulfo-1,4:5,8-dimethanotriphenylene-10-carboxylic acid]
Mammalian sAC
  Hill coefficient for sAC inhibition: 2.0
AC1
  Inhibition of AC1 activity: only moderate inhibition
AC2; 100 μM compound, basal, transfected HEK293T lysate
  Inhibition of basal AC2 activity: only moderate inhibition
AC2; in the presence of forskolin, data not shown
  Effect on AC2 in the presence of forskolin: stimulation
AC5
  Inhibition of AC5 activity: only moderate inhibition
AC9
  Effect on basal AC9 activity: only moderate inhibition

## BrC(c1cccc2ccccc12)c1cccc2ccccc12 [Compound 4, 1-(bromo(1-naphthyl)methyl)naphthalene]
CyaC [4]
  potency estimated from few doses: ~200 µM

## C[C@H]1[C@H](C)CC[C@]2(C(=O)O)CC[C@]3(C)C(=CC[C@@H]4[C@@]5(C)C[C@@H](O)[C@H](O)[C@@](C)(CO)[C@@H]5[C@H](O)C[C@]43C)[C@H]12 [Compound 8, 2,3,6,23-tetrahydroxyurs-12-en-28-oic acid]
CyaC [4]
  potency estimated from few doses: ~100 µM
